Laboratory results published in patent US10385019B2, “Inhibitors of EGFR and methods of use thereof” (Dana-Farber Cancer Institute, Inc., priority 2015, dated 2019).
Read-outs that look alike come from different tables or passages of the source.

Columns and labels:
[1] = target: Del/T790M Ba/F3 cell line (Homo sapiens, UniProt P00533, DEL746-750/T790M, cells depend on it); assay: Ba/F3 cell proliferation model; assay type: cell-based, murine
Source text: (§1) The selectivity between wild-type EGFR and EGFR containing one or more mutations as described herein can also be measured using cellular proliferation assays where cell proliferation is dependent on kinase activity. For example, murine Ba/F3 cells transfected with a suitable version of wild-type EGFR (such as VIII; containing a WT EGFR kinase domain), or Ba/F3 cells transfected with L858R/T790M, Del/T790M/L718Q, L858R/T790M/L718Q, L858R/T790M/C797S, Del/T790M/C797S, L858R/T790M/I941R, or Exon 19 deletion/T790M can be used.
(§2) Cell lines are plated in media. The compounds of the present disclosure are then serially diluted and transferred to the cells. Cell viability is measured via a luminescent readout. Data is analyzed by non-linear regression curve-fitting.
(§3) The EGFR mutant L858R, Del E746_A750, L858R/T790M, DelE746_A750/T790M, L858R/T790M/C797S and Del/T790M/C797S Ba/F3 cells have been previously described (Zhou, W., Ercan, D., Chen, L., Yun, C. H., Li, D., Capelletti, M., Cortot, A. B., Chirieac, L., Iacob, R. E., Padera, R., et al. “Novel mutant-selective EGFR kinase inhibitors against EGFR T790M,” Nature 462, (2009), 1070-1074). All cell lines were maintained in RPMI 1640 (Cellgro; Mediatech Inc., Herndon, Calif.) supplemented with 10% FBS 100 units/mL penicillin, 100 units/mL streptomycin, and 2 mM glutamine. L858R cells were maintained in ACL-4 media (Invitrogen, Carlsbad, Calif.) supplemented with 5% FBS, 100 units/mL penicillin, 100 units/mL streptomycin, and 2 mM glutamine. The EGFR I941R mutation was introduced via site directed mutagenesis using the Quick Change Site-Directed Mutagenesis kit (Stratagene; La Jolla, Calif.) according to the manufacturer's instructions. All constructs were confirmed by DNA sequencing. The constructs were shuttled into the retroviral vector JP 1540 using the BD Creator™ System (BD Biosciences). Ba/F3 cells were infected with retrovirus and according to standard protocols, as described previously (Zhou et al, Nature 2009). Stable clones were obtained by selection in puromycin (2 μg/ml).
(§4) Growth and inhibition of growth was assessed by MTS assay and was performed according to previously established methods (Zhou et al., Nature 2009). The MTS assay is a colorimetric method for determining the number of viable cells that is based on the bioreduction of MTS by cells to a formazan product that is soluble in cell culture medium and can be detected spectrophotometrically. Ba/F3 cells of different EGFR genotypes were exposed to treatment for 72 hours and the number of cells used per experiment determined empirically and has been previously established (Zhou et al., Nature 2009). All experimental points were set up in six wells and all experiments were repeated at least three times. […] The curves were fitted using a non-linear regression model with a sigmoidal dose response.

[2] = test system: EGFR Parental Ba/F3 cell line; assay: Ba/F3 cell proliferation model; assay type: cell-based, murine; details: Mus musculus, BaF3; compound alone
Source text: as §1, §2, §3, §4

[3] = target: EGFR T790M/L858R Ba/F3 cell line (Homo sapiens, UniProt P00533, T790M/L858R, cells depend on it); assay: Ba/F3 cell proliferation model; assay type: cell-based, murine; details: for Activity (% inhibition): combined with cetuximab (% cetuximab, 1.0 μM drug concentration with 1.0 μg/mL cetuximab)
How it was run: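 Murine Ba/F3 cells made IL-3-independent by retroviral EGFR L858R/T790M, selected in puromycin (2 μg/ml) and kept in RPMI 1640 with 10% FBS. Cells were exposed to serially diluted compound for 72 h, with growth read by MTS assay in six wells per point and ≥3 repeats. Sigmoidal dose-response non-linear regression gave the values.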

L858R mutant EGFR = target: T1, L858R mutant EGFR (Homo sapiens, UniProt P00533, L858R); assay: HTRF-based EGFR biochemical assay; details: relative to L858R/T790M and T790M mutants
T1 construct: Constructs spanning residues 696-1022 of the human EGFR; GST (cleaved yes); made in house; host or cells: Sf9 insect cells
Experimental: EGFR biochemical assays are carried out using a homogeneous time-resolved fluorescence (HTRF) assay. The reaction mixtures contain biotin-Lck-peptide substrate, wild type, or mutant EGFR enzyme in reaction buffer. Enzyme concentrations are adjusted to accommodate varying kinase activity and ATP concentrations. Compounds of the present disclosure are diluted into the assay mixture and IC50 values are determined using 12-point inhibition curves.
Constructs spanning residues 696-1022 of the human EGFR (including wild type and L858R, L858R/T790M, T790M, and T790M/V948R mutant sequences) were prepared in a GST-fusion format using the pTriEX system (Novagen) for expression in Sf9 insect cells essentially as described. […]
EGFR biochemical assays were carried out using a homogeneous time-resolved fluorescence (HTRF) assay as described previously. […] Five μL per well of the detection reagent containing 2.5 ng PT66K (Cis-bio) and 0.05 μg SAXL (Prozyme) were added, and the plates were then incubated at room temperature for 1 hour and read with an EnVision plate reader.

[4] = compound alone, read-out: Del/T790M IC50
[5] = read-out: Del/T790M Cetuximab IC50, in combination with Cetuximab
[6] = compound alone, read-out: L858R/T790M IC50
[7] = read-out: L858R/T790M Cetuximab IC50, in combination with Cetuximab

Chain of Del/T790M Ba/F3 cell line (P00533 with tags, fused parts or gaps DEL746-750/T790M): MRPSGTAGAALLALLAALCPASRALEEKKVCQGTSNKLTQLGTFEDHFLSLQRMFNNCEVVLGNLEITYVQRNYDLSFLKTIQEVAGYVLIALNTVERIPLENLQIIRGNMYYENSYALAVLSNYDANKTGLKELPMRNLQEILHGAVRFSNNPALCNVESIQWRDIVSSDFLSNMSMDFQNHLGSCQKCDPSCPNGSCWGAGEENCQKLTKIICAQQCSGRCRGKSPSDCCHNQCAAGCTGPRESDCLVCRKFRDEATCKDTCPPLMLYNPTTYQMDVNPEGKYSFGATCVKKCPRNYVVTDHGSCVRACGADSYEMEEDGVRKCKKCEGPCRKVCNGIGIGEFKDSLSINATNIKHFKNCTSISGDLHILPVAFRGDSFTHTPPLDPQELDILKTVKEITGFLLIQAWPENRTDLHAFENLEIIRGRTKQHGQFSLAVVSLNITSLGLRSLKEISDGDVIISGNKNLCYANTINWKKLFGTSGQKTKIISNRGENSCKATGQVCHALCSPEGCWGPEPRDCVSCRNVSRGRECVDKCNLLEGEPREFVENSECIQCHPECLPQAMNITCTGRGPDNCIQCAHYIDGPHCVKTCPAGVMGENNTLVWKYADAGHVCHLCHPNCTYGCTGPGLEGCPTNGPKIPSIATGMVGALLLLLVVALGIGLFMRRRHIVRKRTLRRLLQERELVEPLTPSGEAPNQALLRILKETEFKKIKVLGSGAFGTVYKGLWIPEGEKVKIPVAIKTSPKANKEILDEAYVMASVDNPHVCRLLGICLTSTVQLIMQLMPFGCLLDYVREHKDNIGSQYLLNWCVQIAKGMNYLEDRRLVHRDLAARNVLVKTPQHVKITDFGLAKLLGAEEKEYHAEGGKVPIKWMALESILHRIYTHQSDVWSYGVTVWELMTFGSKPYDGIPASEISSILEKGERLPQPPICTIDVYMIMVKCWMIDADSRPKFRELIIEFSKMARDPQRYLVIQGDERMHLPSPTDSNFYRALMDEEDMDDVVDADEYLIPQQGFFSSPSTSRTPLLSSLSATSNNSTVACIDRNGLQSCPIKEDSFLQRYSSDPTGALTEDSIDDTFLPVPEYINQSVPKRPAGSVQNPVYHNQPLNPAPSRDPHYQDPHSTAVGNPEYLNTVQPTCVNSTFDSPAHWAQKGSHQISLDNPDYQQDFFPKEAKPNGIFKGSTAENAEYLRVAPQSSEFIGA
Chain of EGFR T790M/L858R Ba/F3 cell line (P00533 whole entry T790M/L858R): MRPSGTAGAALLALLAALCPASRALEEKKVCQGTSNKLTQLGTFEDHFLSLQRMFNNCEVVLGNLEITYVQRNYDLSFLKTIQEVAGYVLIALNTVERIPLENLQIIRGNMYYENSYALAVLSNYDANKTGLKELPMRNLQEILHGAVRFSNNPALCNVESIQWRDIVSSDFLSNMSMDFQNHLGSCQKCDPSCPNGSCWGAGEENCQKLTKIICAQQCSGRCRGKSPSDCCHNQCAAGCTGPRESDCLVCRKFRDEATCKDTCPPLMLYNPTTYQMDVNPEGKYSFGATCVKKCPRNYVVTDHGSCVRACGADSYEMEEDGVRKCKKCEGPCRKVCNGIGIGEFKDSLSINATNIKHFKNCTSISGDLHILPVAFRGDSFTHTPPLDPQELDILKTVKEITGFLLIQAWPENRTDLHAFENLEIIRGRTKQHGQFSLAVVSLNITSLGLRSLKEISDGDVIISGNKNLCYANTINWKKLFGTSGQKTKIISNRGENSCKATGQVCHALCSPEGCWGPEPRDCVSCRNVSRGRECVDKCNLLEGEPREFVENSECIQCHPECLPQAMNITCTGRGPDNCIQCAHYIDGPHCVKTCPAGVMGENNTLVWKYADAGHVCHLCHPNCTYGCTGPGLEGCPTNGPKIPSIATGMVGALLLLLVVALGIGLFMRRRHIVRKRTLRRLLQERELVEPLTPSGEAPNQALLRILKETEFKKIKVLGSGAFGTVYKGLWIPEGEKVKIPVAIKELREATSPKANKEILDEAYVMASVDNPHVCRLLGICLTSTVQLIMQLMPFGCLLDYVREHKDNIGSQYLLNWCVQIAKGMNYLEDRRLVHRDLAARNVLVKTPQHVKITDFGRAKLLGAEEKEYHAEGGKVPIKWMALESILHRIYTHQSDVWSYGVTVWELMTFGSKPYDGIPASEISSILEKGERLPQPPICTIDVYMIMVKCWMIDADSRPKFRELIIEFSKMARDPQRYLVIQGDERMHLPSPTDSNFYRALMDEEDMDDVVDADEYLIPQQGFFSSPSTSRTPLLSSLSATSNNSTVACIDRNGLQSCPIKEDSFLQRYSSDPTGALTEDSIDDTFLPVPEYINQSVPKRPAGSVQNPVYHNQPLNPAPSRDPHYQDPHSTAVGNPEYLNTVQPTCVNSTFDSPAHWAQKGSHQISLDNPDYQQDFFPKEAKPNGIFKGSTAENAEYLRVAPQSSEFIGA
T1 sequence (P00533 696-1022 L858R): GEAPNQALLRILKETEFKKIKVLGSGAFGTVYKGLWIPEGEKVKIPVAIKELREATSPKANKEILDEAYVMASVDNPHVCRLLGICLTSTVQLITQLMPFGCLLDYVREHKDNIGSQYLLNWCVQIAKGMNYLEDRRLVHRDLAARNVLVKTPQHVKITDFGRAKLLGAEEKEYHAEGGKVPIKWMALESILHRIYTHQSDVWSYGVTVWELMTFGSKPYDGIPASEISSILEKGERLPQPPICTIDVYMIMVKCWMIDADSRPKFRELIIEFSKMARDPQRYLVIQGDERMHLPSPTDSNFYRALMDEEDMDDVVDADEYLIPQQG

GI50 [1, 4] [µM] | GI50 [1, 5] [µM] | GI50 [3, 6] [µM] | GI50 [3, 7] [µM] | decreased potency against L858R mutant EGFR (L858R mutant EGFR) | SMILES | IC50 [2] [µM] | Activity (% inhibition) [3]
1 to 10 | 1 to 10 | 1 to 10 | < 0.5 | – | O=C(Nc1nccs1)[C@@H](c1ccccc1)N1Cc2ccc(-c3ccc(N4CCNCC4)cc3)cc2C1=O [Compound I-68, (R)-2-(1-oxo-6-(4-(piperazin-1-yl)phenyl)isoindolin-2-yl)-2-phenyl-N-(thiazol-2-yl)acetamide] | 1 to 10 | D (a % inhibition of between about 0% to about 25%)
1 to 10 | 1 to 10 | > 10 | < 0.5 | – | O=C(Nc1nccs1)[C@@H](c1ccccc1)N1Cc2ccc(-c3ccccc3F)cc2C1=O [Compound I-75, (R)-2-(6-(2-fluorophenyl)-1-oxoisoindolin-2-yl)-2-phenyl-N-(thiazol-2-yl)acetamide] | > 10 | D (a % inhibition of between about 0% to about 25%)
– | – | – | – | approximately 2 fold | O=C(Nc1nccs1)C(c1ccccc1)N1Cc2ccccc2C1=O (stereo not shown) [Compound A1] | – | –
